The source of these data is patent US20210292680A1, “MULTIFUNCTIONAL AROMATIC ALCOHOLS FOR PERSONAL CARE, HOME CARE AND INDUSTRIAL AND INSTITUTIONAL COMPOSITIONS” (EMERALD KALAMA CHEMICAL, LLC, priority 2018, published 2021).

Data set [1] is described as follows: Shear ramp, aqueous solution (viscosity). In kind it is physicochemical. As to conditions: hand dish wash. How it is done:
Shear Ramp aqueous solution: The 40 mm cone and plate geometry was used on an AR2000ex rheometer at 25° C. A gap of 29 μm was used. The shear was ramped from 0 s^−1 to 2000 s^−1 over six minutes. Shear rate is expressed in s^−1 or 1/s. Viscosity readings are expressed in Pa·s.
At 0.5 wt. %, the low shear viscosity increased roughly 36% over the control, while high shear viscosity increased roughly 43%. (Results not shown.)
R=4 Aromatic Alcohols. Similarly, viscosity modifying behavior is observed in a hand dish wash aqueous surfactant solution using an aromatic alcohol, where R=4 carbons (2-methyl-3-phenylpropanol). […] For 0.5 wt. % aromatic alcohol, the low shear viscosity increased 110% over the control, while high shear viscosity increased approximately 37%. At 1.0 wt. % aromatic alcohol, the viscosity profile changed, yielding increases in low and high shear viscosity of 56% and 94%, respectively.

A short description of data set [2]: Process defoaming evaluation (modified ASTM E2407-04). As to conditions: 0.4 wt. % aromatic alcohol; 2.0 wt. % BioSoft N1-7 solution. How it is done:
Defoaming evaluation: Process defoaming was tested using a modified ASTM method (E2407-04 (2015) Standard Test Method for Effectiveness of Defoaming Agents). 250 mL of a 2.0 wt. % surfactant solution was blended at the highest speed setting for 30 seconds, then let sit for 3 minutes. The initial foam height is measured, and then 0.4 wt. % defoamer is dropped onto the surface of the foam. The blender is turned on low speed and the solution is mixed for 1 minute. Foam height is re-measured after an additional five minutes of sitting.
Process defoaming was tested using a modified ASTM method (E2407-04 (2015) Standard Test Method for Effectiveness of Defoaming Agents) to assess surfactants and determine if there was a relationship between foam destabilization and surfactant type. Two different surfactant solutions were tested. 2.0 wt. % surfactant solutions were prepared as controls using BioSoft® N1-7 and SLES. Thereafter, 0.4 wt. % aromatic alcohols (R=3 and R=4) were added to each surfactant solution for comparison to the controls. After agitation to generate foam, the percent of initial foam volume loss was far less for the control (without aromatic alcohols).

A short description of the next data set: Time to dissolve. In kind it is physicochemical. The following applies: water with 1 wt. % aromatic alcohol. How it is done: Time to dissolve: Aromatic alcohol, 1% by weight, was added to deionized water to make 500 mL of solution. Stirring was started at 300 rpm. Test ingredient was added to both a 500 mL control deionized water and the 500 mL aromatic alcohol solution as a stopwatch timer was started. The timer was stopped when solution was completely clear and/or no particles of the test ingredient were visible in either sample. This is noted as the “dissolution time”, or time to dissolve. Aromatic alcohols can help solubilize hard-to-dissolve formulation ingredients more quickly and/or without the use of heat. The addition of 1.0 wt. % aromatic alcohol decreased the dissolution time of several common, hard-to-dissolve ingredients as shown in Table 1 below. Table 1 reflects the time to completely dissolve ingredients in water (Control) or water with 1 wt. % aromatic alcohol (R=3 denotes 3-phenylpropanol; R=4 denotes 2-methyl-3-phenylpropanol).

Data set [3] in a line: Shear ramp, oil-in-water emulsion (viscosity). In kind it is physicochemical. The following applies: Vanicream skin lotion, concentrations up to 0.5 wt. % aromatic alcohol, 25° C. How it is done:
Shear Ramp oil-in-water emulsion: A 25 mm parallel plate geometry was used on an AR2000ex rheometer at 25° C. A gap of 600 μm was used. The shear was ramped from 0 s^−1 to 100 s^−1 over one minute. Viscosity readings are expressed in Pa·s.
R=3 Aromatic Alcohol. An R=3 aromatic alcohol, i.e., 3-phenylpropanol, was tested in a commercial oil-in-water emulsion, i.e., Vanicream® skin lotion, at 0.1 wt. %, 0.25 wt. % and 0.5 wt. % addition and compared to a control (without aromatic alcohol). […] The low shear (at 10 s^−1) viscosity was increased 68% over the control, while high shear viscosity (at 70 s^−1) increased roughly 100% (FIG. 1). The increase in high and low shear viscosity achieved desirable rheological traits such as richness, creaminess, and enhanced texture and skin feel in this end use personal care product with the addition of the aromatic alcohol. This unexpected result allows personal care and home care formulators, among others, to reduce or eliminate use of separate rheology modifiers to manipulate the viscosity of the final product.

The nature of data set [4]: Final product foam stability (Blender Foam Volume/Drainage method). As to conditions: 0.5 wt. % aromatic alcohol incorporated into products. How it is done:
Final product foam stability was tested using Blender Foam Volume/Drainage method published by Henkel Corp. 1981.
In the foam loss evaluation above, foam destabilization occurred at the time of addition (with mixing) of the aromatic alcohol. Further testing was performed to determine if the foaming ability of final products would be negatively impacted if aromatic alcohols were added to the formulations during the production process. A variety of commercial products were selected for testing, and 0.5 wt. % of aromatic alcohol (R=3, 3-phenylpropanol) was added to each. […] Foam stability of these commercial products was not reduced by the addition of aromatic alcohol.

Data set [5] in a line: Formulation stability of general purpose cleaner on storage. In kind it is physicochemical. As to conditions: 0.5 wt. % aromatic alcohol; pH 7; 7 days at 22° C. The text has this: Rapid and complete dissolution of raw materials into aqueous solutions can prevent problems with solution instability over time. For example, a general purpose cleaner containing sodium coco fatty alcohol sulfate and 0.1 wt. % of either hydroxyethyl cellulose or xanthan gum (Table 2) becomes unstable over time across a range of pH values.
Panel (b) of FIG. 10 compares a general purpose cleaner containing hydroxyethyl cellulose at pH 7 with (right side of panel) and without (left side of panel) the use of 0.5 wt. % aromatic alcohol, stored at room temperature for one week, then shaken to disperse precipitants. Panel (c) of FIG. 10 compares a general purpose cleaner containing xanthan gum at pH 5 with (right side of panel) and without (left side of panel) the use of 0.5 wt. % aromatic alcohol (right,) stored at room temperature for one week, then shaken to disperse precipitants.
Similar observations were made with formulations of a general purpose cleaner in the absence of hydroxyethyl cellulose or xanthan gum but containing sodium coco fatty alcohol sulfate surfactant (FIG. 11). FIG. 11 compares a sample of a general purpose cleaner at pH 7 with and without 0.5 wt. % aromatic alcohol (R=3, 3-phenylpropanol). […]

The mark [6] stands for this setting: Coco fatty alcohol sulfate 2.0 wt. %.

For the compound `CC(CO)Cc1ccccc1` (stereo not shown) [2-methyl-3-phenylpropanol], the “high shear viscosity increase over the control” value in data set [1] (0.5 wt. % aromatic alcohol) was “approximately 37%”; in data set [1] (1.0 wt. % aromatic alcohol) it was 94%. Moreover, the entries for the “low shear viscosity increase over the control” value in data set [1] (0.5 wt. % aromatic alcohol) and in data set [1] (1.0 wt. % aromatic alcohol) were 110% and 56%, respectively. The “foam destabilization (foam loss, % of initial foam volume)” value in data set [2] was “significantly destabilized foam”. For the same compound, the results for the “Time to Dissolve at 22° C.” value in “Time to dissolve” (1,2-octanediol 1.0 wt. %) and in the data set “Time to dissolve” (setting [6]) were 7.8 min and 3.5 min, respectively.
Take `OCCCc1ccccc1` [3-phenylpropanol]: the figures for the “low shear viscosity increase over the control” value in data set [3] (at 10 s^-1) and in data set [1] (0.5 wt. % aromatic alcohol) were 68% and “roughly 36%”, respectively. Also, the results for the “high shear viscosity increase over the control” value in data set [3] (at 70 s^-1) and in data set [1] (0.5 wt. % aromatic alcohol) were “roughly 100%” and “roughly 43%”, respectively. For the same compound, in data set [2], the “foam destabilization (foam loss, % of initial foam volume)” value is “significantly destabilized foam”. For the same compound, the “foam stability of commercial products” value in data set [4] is given as “not reduced”. For the same compound, the “Time to Dissolve at 22° C.” value in the data set “Time to dissolve” (1,2-octanediol 1.0 wt. %) turned out to be 8.1 min; in the data set “Time to dissolve” (setting [6]), 4.0 min. Moreover, the “homogeneity of general purpose cleaner without hydroxyethyl cellulose or xanthan gum, containing coco fatty alcohol sulfate” value in data set [5] is given as “remained homogeneous”.
